Source: US11439148B2, “Pyrimidine derivatives” (SYNGENTA PARTICIPATIONS AG, priority 2017, dated 2022)

Tested on: Abutilon theophrasti (ABUTH)
Test: Adjuvant efficacy with nicosulfuron, glasshouse spray test
Type: in vivo
Settings: nicosulfuron WG, mean over 15 and 60 g/ha and 3 replicates; adjuvant 0.2% v/v (none in No Adjuvant rows); % leaf area killed, 21 days after application; Tests 1-4 separate runs
Description: (§1) The efficacy of adjuvants 1-12 as adjuvants for the herbicide nicosulfuron were tested in a glasshouse against four weed species sown into standard soil in pots and cultivated under controlled conditions in a glasshouse (at 24/18° C. day/night; 16 hours light; 65% humidity). Nicosulfuron was added to the spray tank as a standard WG (water dispersible granule) formulation.
(§2) The spray tests were also carried out using nicosulfuron in conjunction with adjuvants 1-12. The adjuvant was added to the spray solution at a rate of 0.2% v/v. All spray solutions also contained 12.5% v/v of iso-Propanol. The weed species and their BBCH growth stage at spraying were Abutilon theophrasti (ABUTH; growth stage 13), Chenopodium album (CHEAL; growth stage 13-14), Digitaria sanguinalis (DIGSA; growth stage 11), and Setaria viridis (SETVI; growth stage 13). Each spray test was replicated three times. The test plants were then grown in a glasshouse under controlled conditions (at 24/18° C. day/night; 16 hours light; 65% humidity) and watered twice a day. The efficacy of the herbicide was assessed visually and expressed as a percentage of the leaf area killed. Samples were assessed at a time period of 21 days following application. The results shown in Table 1 below are mean averages over the two rates of nicosulfuron, and the three replicates.

CCCCCCOc1cc(OCCOCCOCCOCCOCCOCCOCCOCCOCCOCCOCCOCCOCCOCCOCCOCCOCCOCCOCCOCCOC)ncn1 [Adjuvant 3] and CCCCCCCCCOc1cc(OCCOCCOCCOCCOCCOCCOCCOCCOCCOCCOC)ncn1 [Adjuvant 5] are the same in “Mean % Herbicidal Activity ABUTH” value: 49% for the first, 49% for the second.

With CCCCCCCCCCCCOc1cc(OCCOCCOCCOCCOCCOCCOCCOC)ncn1 [Adjuvant 6] the “Mean % Herbicidal Activity ABUTH” value was 38%.

Tested on: Chenopodium album (CHEAL)
Test: as above
Type: in vivo
Settings: nicosulfuron WG, mean over 15 and 60 g/ha and 3 replicates; adjuvant 0.2% v/v (none in No Adjuvant rows); % leaf area killed, 21 days after application; Tests 1-4 separate runs
Description: as §1, §2

Going from CCCCCCOc1cc(OCCOCCOCCOCCOCCOCCOCCOCCOCCOCCOCCOCCOCCOCCOCCOCCOCCOCCOCCOCCOC)ncn1 [Adjuvant 3] to CCCCCCCCCOc1cc(OCCOCCOCCOCCOCCOCCOCCOCCOCCOCCOC)ncn1 [Adjuvant 5], the “Mean % Herbicidal Activity CHEAL” value falls from 76% to 63%.

With CCCCCCCCCCCCOc1cc(OCCOCCOCCOCCOCCOCCOCCOC)ncn1 [Adjuvant 6] the “Mean % Herbicidal Activity CHEAL” value was 83%.

Tested on: Digitaria sanguinalis (DIGSA)
Test: as above
Type: in vivo
Settings: nicosulfuron WG, mean over 15 and 60 g/ha and 3 replicates; adjuvant 0.2% v/v (none in No Adjuvant rows); % leaf area killed, 21 days after application; Tests 1-4 separate runs
Description: as §1, §2

First: CCCCCCOc1cc(OCCOCCOCCOCCOCCOCCOCCOCCOCCOCCOCCOCCOCCOCCOCCOCCOCCOCCOCCOCCOC)ncn1 [Adjuvant 3]
Second: CCCCCCCCCOc1cc(OCCOCCOCCOCCOCCOCCOCCOCCOCCOCCOC)ncn1 [Adjuvant 5]
The “Mean % Herbicidal Activity DIGSA” value of the first is higher: 88% for the first, 49% for the second.

For CCCCCCCCCCCCOc1cc(OCCOCCOCCOCCOCCOCCOCCOC)ncn1 [Adjuvant 6], the “Mean % Herbicidal Activity DIGSA” value was 74%.

Tested on: Setaria viridis (SETVI)
Test: as above
Type: in vivo
Settings: nicosulfuron WG, mean over 15 and 60 g/ha and 3 replicates; adjuvant 0.2% v/v (none in No Adjuvant rows); % leaf area killed, 21 days after application; Tests 1-4 separate runs
Description: as §1, §2

Going from CCCCCCOc1cc(OCCOCCOCCOCCOCCOCCOCCOCCOCCOCCOCCOCCOCCOCCOCCOCCOCCOCCOCCOCCOC)ncn1 [Adjuvant 3] to CCCCCCCCCOc1cc(OCCOCCOCCOCCOCCOCCOCCOCCOCCOCCOC)ncn1 [Adjuvant 5], the “Mean % Herbicidal Activity SETVI” value falls from 93% to 91%.

For CCCCCCCCCCCCOc1cc(OCCOCCOCCOCCOCCOCCOCCOC)ncn1 [Adjuvant 6], the “Mean % Herbicidal Activity SETVI” value was 91%.

Tested on: Abutilon theophrasti (ABUTH)
Test: Adjuvant efficacy with fomesafen, glasshouse spray test
Type: in vivo
Settings: fomesafen sodium salt SL, mean over 100 and 200 g/ha and 3 replicates; adjuvant 0.2% v/v (none in No Adjuvant rows); % leaf area killed, 21 days after application; Tests 1-4 separate runs
Description: (§3) The efficacy of adjuvants 1-12 as adjuvants for the herbicide fomesafen (as the sodium salt) were tested in a glasshouse against four weed species, sown into standard soil in pots and cultivated under controlled conditions in a glasshouse (at 24/18° C. day/night; 16 hours light, 65% humidity). Fomesafen sodium salt was added to the spray tank as a standard SL (soluble concentrate) formulation.
(§4) The spray tests were also carried out using fomesafen in conjunction with adjuvants 1-12. Unless otherwise stated, the adjuvants were added to the spray solution at a rate of 0.2% v/v. All spray solutions also contained 12.5% v/v of iso-Propanol to normalise the retention of the sprays on the hydrophobic plant surfaces. The weed species and their BBCH growth stage at spraying were Abutilon theophrasti (ABUTH; growth stage 12-13), Chenopodium album (CHEAL; growth stage 15), Ipomea hederacea (IPOHE; growth stage 12), and Setaria viridis (SETVI; growth stage 14). Each spray test was replicated three times. The test plants were then grown in a glasshouse under controlled conditions (at 24/18° C. day/night; 16 hours light; 65% humidity) and watered twice a day.
(§5) The efficacy of the herbicide was assessed visually and expressed as a percentage of the leaf area killed. Samples were assessed at a time period of 21 days following application. The results shown in Table 2 below are mean averages over the two rates of fomesafen, the three replicates […].

Compared with CCCCCCOc1cc(OCCOCCOCCOCCOCCOCCOCCOCCOCCOCCOCCOCCOCCOCCOCCOCCOCCOCCOCCOCCOC)ncn1 [Adjuvant 3], CCCCCCCCCOc1cc(OCCOCCOCCOCCOCCOCCOCCOCCOCCOCCOC)ncn1 [Adjuvant 5] is higher in “Mean % Herbicidal Activity ABUTH” value: 47% for the first, 60% for the second.

CCCCCCCCCCCCOc1cc(OCCOCCOCCOCCOCCOCCOCCOC)ncn1 [Adjuvant 6] was tested, and the “Mean % Herbicidal Activity ABUTH” value was 31%.

Tested on: Chenopodium album (CHEAL)
Test: as above
Type: in vivo
Settings: fomesafen sodium salt SL, mean over 100 and 200 g/ha and 3 replicates; adjuvant 0.2% v/v (none in No Adjuvant rows); % leaf area killed, 21 days after application; Tests 1-4 separate runs
Description: as §3, §4, §5

Going from CCCCCCOc1cc(OCCOCCOCCOCCOCCOCCOCCOCCOCCOCCOCCOCCOCCOCCOCCOCCOCCOCCOCCOCCOC)ncn1 [Adjuvant 3] to CCCCCCCCCOc1cc(OCCOCCOCCOCCOCCOCCOCCOCCOCCOCCOC)ncn1 [Adjuvant 5], the “Mean % Herbicidal Activity CHEAL” value rises from 54% to 55%.

CCCCCCCCCCCCOc1cc(OCCOCCOCCOCCOCCOCCOCCOC)ncn1 [Adjuvant 6] was tested, and the “Mean % Herbicidal Activity CHEAL” value was 80%.

Tested on: Ipomea hederacea (IPOHE)
Test: as above
Type: in vivo
Settings: fomesafen sodium salt SL, mean over 100 and 200 g/ha and 3 replicates; adjuvant 0.2% v/v (none in No Adjuvant rows); % leaf area killed, 21 days after application; Tests 1-4 separate runs
Description: as §3, §4, §5

Going from CCCCCCOc1cc(OCCOCCOCCOCCOCCOCCOCCOCCOCCOCCOCCOCCOCCOCCOCCOCCOCCOCCOCCOCCOC)ncn1 [Adjuvant 3] to CCCCCCCCCOc1cc(OCCOCCOCCOCCOCCOCCOCCOCCOCCOCCOC)ncn1 [Adjuvant 5], the “Mean % Herbicidal Activity IPOHE” value falls from 88% to 64%.

For CCCCCCCCCCCCOc1cc(OCCOCCOCCOCCOCCOCCOCCOC)ncn1 [Adjuvant 6], the “Mean % Herbicidal Activity IPOHE” value was 64%.

Tested on: Setaria viridis (SETVI)
Test: as above
Type: in vivo
Settings: fomesafen sodium salt SL, mean over 100 and 200 g/ha and 3 replicates; adjuvant 0.2% v/v (none in No Adjuvant rows); % leaf area killed, 21 days after application; Tests 1-4 separate runs
Description: as §3, §4, §5

Going from CCCCCCOc1cc(OCCOCCOCCOCCOCCOCCOCCOCCOCCOCCOCCOCCOCCOCCOCCOCCOCCOCCOCCOCCOC)ncn1 [Adjuvant 3] to CCCCCCCCCOc1cc(OCCOCCOCCOCCOCCOCCOCCOCCOCCOCCOC)ncn1 [Adjuvant 5], the “Mean % Herbicidal Activity SETVI” value rises from 37% to 49%.

CCCCCCCCCCCCOc1cc(OCCOCCOCCOCCOCCOCCOCCOC)ncn1 [Adjuvant 6] was tested, and the “Mean % Herbicidal Activity SETVI” value was 25%.

Tested on: four weed species (ABUTH, CHEAL, IPOHE, SETVI)
Test: Adjuvant efficacy with fomesafen, glasshouse spray test, average over all species
Type: in vivo
Settings: fomesafen sodium salt SL, mean over 100 and 200 g/ha, adjuvant 0.2% v/v (none in No Adjuvant rows), 21 days, average of ABUTH
Description: as §3, §4, §5

First: CCCCCCOc1cc(OCCOCCOCCOCCOCCOCCOCCOCCOCCOCCOCCOCCOCCOCCOCCOCCOCCOCCOCCOCCOC)ncn1 [Adjuvant 3]
Second: CCCCCCCCCOc1cc(OCCOCCOCCOCCOCCOCCOCCOCCOCCOCCOC)ncn1 [Adjuvant 5]
The “Mean % Herbicidal Activity Average over all Species” value of the first is lower: 56% for the first, 57% for the second.

CCCCCCCCCCCCOc1cc(OCCOCCOCCOCCOCCOCCOCCOC)ncn1 [Adjuvant 6] was tested, and the “Mean % Herbicidal Activity Average over all Species” value was 50%.

Tested on: Digitaria sanguinalis (DIGSA)
Test: Adjuvant efficacy with mesotrione, glasshouse spray test
Type: in vivo
Settings: mesotrione SC, mean over 30 and 60 g/ha and 3 replicates; adjuvant 0.2% v/v (none in No Adjuvant rows); % leaf area killed, 21 days after application; Tests 1-4 separate runs
Description: (§6) The efficacy of adjuvants 1-12 as an adjuvant for the herbicide mesotrione was tested in a glasshouse against four weed species sown into standard soil in pots and cultivated under controlled conditions in a glasshouse (at 24/18° C. day/night; 16 hours light; 65% humidity). Mesotrione was added to the spray tank as a standard SC (suspension concentrate) formulation.
(§7) The spray tests were also carried out using mesotrione in conjunction with adjuvants 1-12. The adjuvants were added to the spray solution at a rate of 0.2% v/v unless otherwise stated. All spray solutions also contained 10% w/w of iso-Propanol. The weed species and their BBCH growth stage at spraying were Brachiaria platyphylla (BRAPP; growth stage 13-14) or Brachiaria plantaginea (BRAPL; growth stage 13-14), Commelina benghalensis (COMBE; growth stage 13), Digitaria sanguinalis (DIGSA; growth stage 14), and Polygonum convolvulus (POLCO; growth stage 13-14). Each spray test was replicated three times.
(§8) The test plants were then grown in a glasshouse under controlled conditions (at 24/18° C. day/night; 16 hours light; 65% humidity) and watered twice a day. The efficacy of the herbicide was assessed visually and expressed as a percentage of the leaf area killed. Samples were assessed at a time period of 21 days following application. The results shown in Table 3 below are mean averages over the two rates of mesotrione and the three replicates.

Compared with CCCCCCOc1cc(OCCOCCOCCOCCOCCOCCOCCOCCOCCOCCOCCOCCOCCOCCOCCOCCOCCOCCOCCOCCOC)ncn1 [Adjuvant 3], CCCCCCCCCOc1cc(OCCOCCOCCOCCOCCOCCOCCOCCOCCOCCOC)ncn1 [Adjuvant 5] is lower in “Mean % Herbicidal Activity DIGSA” value: 83% for the first, 72% for the second.

For CCCCCCCCCCCCOc1cc(OCCOCCOCCOCCOCCOCCOCCOC)ncn1 [Adjuvant 6], the “Mean % Herbicidal Activity DIGSA” value was 83%.

Tested on: Polygonum convolvulus (POLCO)
Test: as above
Type: in vivo
Settings: mesotrione SC, mean over 30 and 60 g/ha and 3 replicates; adjuvant 0.2% v/v (none in No Adjuvant rows); % leaf area killed, 21 days after application; Tests 1-4 separate runs
Description: as §6, §7, §8

Compared with CCCCCCOc1cc(OCCOCCOCCOCCOCCOCCOCCOCCOCCOCCOCCOCCOCCOCCOCCOCCOCCOCCOCCOCCOC)ncn1 [Adjuvant 3], CCCCCCCCCOc1cc(OCCOCCOCCOCCOCCOCCOCCOCCOCCOCCOC)ncn1 [Adjuvant 5] is higher in “Mean % Herbicidal Activity POLCO” value: 92% for the first, 94% for the second.

In the case of CCCCCCCCCCCCOc1cc(OCCOCCOCCOCCOCCOCCOCCOC)ncn1 [Adjuvant 6], the “Mean % Herbicidal Activity POLCO” value is reported as 84%.
